Reference: US10059741B2 (priority 2015, dated 2018)
pEC50: −log10 of the molar value. Read-outs that look alike come from different tables or passages of the source. Bridge positions count the residues as written; N and C are the ends. Square brackets hold non-standard residues; d marks the D form. Peptide text beside a SMILES is read from it. * marks the point of attachment. 5FAM = O=C1OC2(c3ccc(O)cc3Oc3cc(O)ccc32)c2ccc(C(=O)*)cc21; R8 = C=CCCCCCC[C@@](C)(N)C(=O)O; S5 = C=CCCC[C@](C)(N)C(=O)O; Nle = CCCC[C@H](N)C(=O)O; Aib = CC(C)(N)C(=O)O; βAla = NCCC(=O)O

Columns and labels:
in vitro = conditions: dog
H1N1 California/07/2009 [1] = test: microbe, parasite or virus in culture; type: cell-based, influenza A virus; conditions: for EC50: read-out: EC50 (μM) H1N1 California/07/2009; for pEC50: read-out: EC50
H3N2 Perth/16/2009 [2] = test: microbe, parasite or virus in culture; type: cell-based, influenza A virus; conditions: for EC50: read-out: EC50 (μM) H3N2 Perth/16/2009
H1N1 California/07/2009 [3] = test: microbe, parasite or virus in culture; type: cell-based, influenza A virus; conditions: for EC50: read-out: EC50 (μM) H1N1 California/07/2009; for pEC50: read-out: EC50; remark: listed apart in the source
H3N2 Perth/16/2009 [4] = test: microbe, parasite or virus in culture; type: cell-based, influenza A virus; conditions: for EC50: read-out: EC50 (μM) H3N2 Perth/16/2009; remark: listed apart in the source
[5] = CC50 (μM) H1N1 California/07/2009, Cell cytotoxicity (CC), run with H1N1 California/07/2009
[6] = CC50 (μM) H3N2 Perth/16/2009, Cell cytotoxicity (CC), run with H3N2 Perth/16/2009
[7] = CC50, MDCK cells, run with Influenza A H1N1 California/07/2009, Neutral Red
[8] = CC50, MDCK cells, run with Influenza A H1N1 California/07/2009, Visual
[9] = CC50, run with Influenza A H1N1 California/07/2009, Neutral Red
[10] = CC50, run with Influenza A H1N1 California/07/2009, Visual
[11] = CC50, run with Influenza A H3N2 Perth/16/2006 (so in the source), Neutral Red
[12] = CC50, run with Influenza A H3N2 Perth/16/2006 (so in the source), Visual
[13] = Cytopathic effect/toxicity (Neutral red), MDCK cells
[14] = Cytopathic effect/toxicity (Visual), MDCK cells

Row | Compound | CC50 (in vitro; [5]) | CC50 (in vitro; [6]) | CC50 (in vitro; [7]) | CC50 (in vitro; [8]) | EC50 (H1N1 California/07/2009 [1]) | EC50 (H3N2 Perth/16/2009 [2]) | EC50 (H1N1 California/07/2009 [3]) | EC50 (H3N2 Perth/16/2009 [4]) | CC50 (in vitro; [9]) | CC50 (in vitro; [10]) | CC50 (in vitro; [11]) | CC50 (in vitro; [12]) | other results
1 | CCCC[C@H](NC(C)=O)C(=O)N[C@@H](CC(=O)O)C(=O)N[C@H](C(=O)N[C@@H](CC(N)=O)C(=O)N[C@@]1(C)CCCC=CCCC[C@@](C)(C(=O)N[C@@H](CC(C)C)C(=O)N[C@@H](C)C(=O)N[C@H](C(=O)NC(C)(C)C(=O)N[C@@H](C)C(=O)N[C@@H](CCC(N)=O)C(=O)N[C@@H](C)C(=O)N[C@H](C)C(N)=O)C(C)C)NC(=O)[C@H](CC(C)C)NC(=O)[C@H](CC(C)C)NC(=O)[C@H]([C@@H](C)O)NC1=O)C(C)C [SP-16] (Ac-[Nle]DVN[S5]TLL[S5]LAV[Aib]AQA[dA]-NH2; staple 5-9) | > 100 µM | > 100 µM | > 100 µM | > 100 µM | 10 to 25 µM | 25 to 50 µM | 10 to 25 µM | 25 to 50 µM | – | – | – | – | –
2 | CCCC[C@H](NC(=O)CCNC(=O)c1ccc2c(c1)C(=O)OC21c2ccc(O)cc2Oc2cc(O)ccc21)C(=O)N[C@@H](CC(=O)O)C(=O)N[C@H](C(=O)N[C@@H](CC(N)=O)C(=O)N[C@@]1(C)CCCC=CCCC[C@@](C)(C(=O)N[C@@H](CC(C)C)C(=O)N[C@@H](C)C(=O)N[C@H](C(=O)NC(C)(C)C(=O)N[C@@H](C)C(=O)N[C@@H](CCC(N)=O)C(N)=O)C(C)C)NC(=O)[C@H](CC(C)C)NC(=O)[C@H](CC(C)C)NC(=O)[C@H]([C@@H](C)O)NC1=O)C(C)C [SP-5] ({5FAM-βAla}-[Nle]DVN[S5]TLL[S5]LAV[Aib]AQ-NH2; staple 5-9) | > 100 µM | > 100 µM | > 100 µM | > 100 µM | – | – | – | – | – | – | – | – | –
3 | CCCC[C@H](NC(C)=O)C(=O)N[C@@H](CC(=O)O)C(=O)N[C@H](C(=O)N[C@@H](CC(N)=O)C(=O)N[C@@]1(C)CCCC=CCCC[C@@](C)(C(=O)N[C@@H](CC(C)C)C(=O)N[C@@H](C)C(=O)N[C@H](C(=O)NC(C)(C)C(=O)N[C@@H](C)C(=O)N[C@@H](CCC(N)=O)C(=O)N[C@@H](C)C(=O)N[C@@H](C)C(N)=O)C(C)C)NC(=O)[C@H](CC(C)C)NC(=O)[C@H](CC(C)C)NC(=O)[C@H]([C@@H](C)O)NC1=O)C(C)C [SP-7] (Ac-[Nle]DVN[S5]TLL[S5]LAV[Aib]AQAA-NH2; staple 5-9) | > 100 µM | > 100 µM | > 100 µM | > 100 µM | 10 to 25 µM | 25 to 50 µM | 10 to 25 µM | 25 to 50 µM | – | – | – | – | –
4 | CCCC[C@H](NC(C)=O)C(=O)N[C@@H](CC(=O)O)C(=O)N[C@H](C(=O)N[C@@H](CC(N)=O)C(=O)N[C@]1(C)CCCCCCC=CCCC[C@@](C)(C(=O)N[C@@H](CCC(N)=O)C(=O)N[C@@H](C)C(=O)N[C@@H](CCC(N)=O)C(=O)N[C@@H](C)C(=O)N[C@@H](C)C(N)=O)NC(=O)[C@H](C)NC(=O)[C@H](CC(C)C)NC(=O)[C@H](Cc2ccccc2)NC(=O)[C@H](CC(C)C)NC(=O)[C@H](CC(C)C)NC(=O)[C@H]([C@@H](C)O)NC1=O)C(C)C [SP-26] (Ac-[Nle]DVN[R8]TLLFLA[S5]QAQAA-NH2; staple 5-12) | > 100 µM | > 100 µM | – | – | – | – | – | – | > 100 µM | > 100 µM | > 100 µM | > 100 µM | EC50 (H1N1 California/07/2009 [1]; [13]): 1.5 to 10 µM; pEC50 (H1N1 California/07/2009 [1]; Influenza A H1N1 California/07/2009, Drug Assay Neutral Red): 5.68; EC50 (H3N2 Perth/16/2009 [2]; [14]): 10 to 25 µM; pEC50 (H3N2 Perth/16/2009 [2]; Influenza A H3N2 Perth/16/2006 (so in the source), Drug Assay Visual, read-out: EC50): 4.85; EC50 (H1N1 California/07/2009 [3]; [14]): < 1.5 µM; pEC50 (H1N1 California/07/2009 [3]; Influenza A H1N1 California/07/2009, Drug Assay Visual): 6.12; EC50 (H3N2 Perth/16/2009 [4]; [13]): 10 to 25 µM; pEC50 (H3N2 Perth/16/2009 [4]; Influenza A H3N2 Perth/16/2006 (so in the source), Drug Assay Neutral Red, read-out: EC50): 4.64
5 | CCCC[C@H](NC(C)=O)C(=O)N[C@@H](CC(=O)O)C(=O)N[C@H](C(=O)N[C@@H](CC(N)=O)C(=O)N[C@@]1(C)CCCC=CCCC[C@@](C)(C(=O)N[C@@H](CC(C)C)C(=O)N[C@@H](C)C(=O)N[C@H](C(=O)NC(C)(C)C(=O)N[C@@H](C)C(=O)N[C@@H](CCC(N)=O)C(=O)N[C@@H](C)C(=O)N[C@H](C)C(=O)O)C(C)C)NC(=O)[C@H](CC(C)C)NC(=O)[C@H](CC(C)C)NC(=O)[C@H]([C@@H](C)O)NC1=O)C(C)C [SP-17] (Ac-[Nle]DVN[S5]TLL[S5]LAV[Aib]AQA[dA]-OH; staple 5-9) | > 100 µM | > 100 µM | > 100 µM | > 100 µM | 25 to 50 µM | 10 to 25 µM | 25 to 50 µM | 10 to 25 µM | – | – | – | – | –
6 | CCCC[C@H](NC(C)=O)C(=O)N[C@@H](CC(=O)O)C(=O)N[C@H](C(=O)N[C@@H](CC(N)=O)C(=O)N[C@@]1(C)CCCC=CCCC[C@@](C)(C(=O)N[C@@H](CC(C)C)C(=O)N[C@@H](C)C(=O)N[C@H](C(=O)N[C@@H](CCC(N)=O)C(=O)N[C@@H](C)C(=O)N[C@@H](CCC(N)=O)C(=O)NC(C)(C)C(=O)N[C@@H](C)C(N)=O)C(C)C)NC(=O)[C@H](CC(C)C)NC(=O)[C@H](CC(C)C)NC(=O)[C@H]([C@@H](C)O)NC1=O)C(C)C [SP-20] (Ac-[Nle]DVN[S5]TLL[S5]LAVQAQ[Aib]A-NH2; staple 5-9) | > 100 µM | > 100 µM | – | – | 25 to 50 µM | 1.5 to 10 µM | 10 to 25 µM | 1.5 to 10 µM | > 100 µM | > 100 µM | > 100 µM | > 100 µM | –
7 | CCCC[C@H](NC(C)=O)C(=O)N[C@@H](CC(=O)O)C(=O)N[C@H](C(=O)N[C@@H](CC(N)=O)C(=O)N[C@@]1(C)CCCC=CCCC[C@@](C)(C(=O)N[C@@H](CC(C)C)C(=O)N[C@@H](C)C(=O)N[C@H](C(=O)N[C@@H](CCC(N)=O)C(=O)N[C@@H](C)C(=O)NC(C)(C)C(=O)N[C@@H](C)C(=O)N[C@@H](C)C(N)=O)C(C)C)NC(=O)[C@H](CC(C)C)NC(=O)[C@H](CC(C)C)NC(=O)[C@H]([C@@H](C)O)NC1=O)C(C)C [SP-23] (Ac-[Nle]DVN[S5]TLL[S5]LAVQA[Aib]AA-NH2; staple 5-9) | > 100 µM | > 100 µM | – | – | 1.5 to 10 µM | 1.5 to 10 µM | 1.5 to 10 µM | 1.5 to 10 µM | > 100 µM | > 100 µM | > 100 µM | > 100 µM | pEC50 (H1N1 California/07/2009 [1]): 5.38; pEC50 (H1N1 California/07/2009 [3]): 5.37
8 | CCCC[C@H](NC(C)=O)C(=O)N[C@@H](CC(=O)O)C(=O)N[C@H](C(=O)N[C@@H](CC(N)=O)C(=O)N[C@@]1(C)CCCC=CCCC[C@@](C)(C(=O)N[C@@H](CC(C)C)C(=O)N[C@@H](CCCCN)C(=O)N[C@@H](C)C(=O)NC(C)(C)C(=O)N[C@@H](C)C(=O)N[C@@H](CCC(N)=O)C(N)=O)NC(=O)[C@H](CC(C)C)NC(=O)[C@H](CC(C)C)NC(=O)[C@H]([C@@H](C)O)NC1=O)C(C)C [SP-1] (Ac-[Nle]DVN[S5]TLL[S5]LKA[Aib]AQ-NH2; staple 5-9) | > 100 µM | > 100 µM | > 100 µM | > 100 µM | 25 to 50 µM | 25 to 50 µM | > 50 µM | 25 to 50 µM | – | – | – | – | –
9 | CCCC[C@H](NC(C)=O)C(=O)N[C@@H](CC(=O)O)C(=O)N[C@H](C(=O)N[C@@H](CC(N)=O)C(=O)N[C@@]1(C)CCCC=CCCC[C@@](C)(C(=O)N[C@@H](CC(C)C)C(=O)N[C@@H](C)C(=O)N[C@H](C(=O)N[C@@H](CCC(N)=O)C(=O)NC(C)(C)C(=O)N[C@@H](CCC(N)=O)C(=O)N[C@@H](C)C(=O)N[C@@H](C)C(N)=O)C(C)C)NC(=O)[C@H](CC(C)C)NC(=O)[C@H](CC(C)C)NC(=O)[C@H]([C@@H](C)O)NC1=O)C(C)C [SP-19] (Ac-[Nle]DVN[S5]TLL[S5]LAVQ[Aib]QAA-NH2; staple 5-9) | > 100 µM | > 100 µM | – | – | 1.5 to 10 µM | 1.5 to 10 µM | 1.5 to 10 µM | 1.5 to 10 µM | > 100 µM | > 100 µM | > 100 µM | > 100 µM | –
